# From paper PMC11078746 (Nature, 2024)
# “And” between values parts separate entries of the source, which are not always exact repeats. Identical values can stand only once. Like-named read-outs stand apart in the source and are kept apart here.
# Key:
# 2313287 = test: CFA 10-14 day clonogenic assay; assay type: cell-based; conditions: Homo sapiens
# IM95 = test: 4 day proliferation assay (CellTiter-Glo); conditions: Homo sapiens, IM95, 96 h, read-out: 4 day assay GI50
# OVK18 = test: 4 day proliferation assay (CellTiter-Glo); conditions: Homo sapiens, OVK18, 96 h, read-out: 4 day assay GI50
# LS411N = test: 4 day proliferation assay (CellTiter-Glo)
# HEC151 [1] = test: CFA 10-14 day clonogenic assay; assay type: cell-based; conditions: Homo sapiens
# HEC6 = test: CFA 10-14 day clonogenic assay; assay type: cell-based; conditions: Homo sapiens, HEC-6
# SNU1 = test: 4 day proliferation assay (CellTiter-Glo); conditions: Homo sapiens, SNU1, 96 h, read-out: 4 day assay GI50
# [2] = system: CYP (all isoforms tested); test: CYP inhibition; assay type: in vitro ADME
# TGBC11TKB = test: 4 day proliferation assay (CellTiter-Glo); conditions: Homo sapiens, 96 h, read-out: 4 day assay GI50
# LIM2405 = test: 4 day proliferation assay (CellTiter-Glo); conditions: Homo sapiens, 96 h, read-out: 4 day assay GI50
# LS180 = test: CFA 10-14 day clonogenic assay; assay type: cell-based; conditions: Homo sapiens
# SNGM = test: CFA 10-14 day clonogenic assay; assay type: cell-based; conditions: Homo sapiens
# IGROV1 = test: CFA 10-14 day clonogenic assay; assay type: cell-based; conditions: Homo sapiens, IGROV-1
# Ishikawa = test: CFA 10-14 day clonogenic assay; assay type: cell-based; conditions: Homo sapiens
# RL952 = test: CFA 10-14 day clonogenic assay; assay type: cell-based; conditions: Homo sapiens, RL95-2
# PXR = PXR (Homo sapiens, UniProt O75469); test: PXR activation; assay type: in vitro ADME
# LS513 = test: 4 day proliferation assay (CellTiter-Glo); conditions: Homo sapiens, LS-513, 96 h, read-out: 4 day assay GI50
# HEC151 [3] = test: 4 day proliferation assay (CellTiter-Glo); conditions: Homo sapiens, 96 h, read-out: 4 day assay GI50
# CAL33 = test: CFA 10-14 day clonogenic assay; assay type: cell-based; conditions: Homo sapiens, CAL-33
# Mouse unbound fraction = assay type: in vitro ADME; conditions: blood
# HCT116 cells = conditions: after HRO761 treatment
# Procedure: Membranes were incubated overnight with the primary antibodies and for 1 h with the secondary antibodies. Washing steps were performed with 1× PBS containing 0.01% Tween-20. […] We performed the immunoblots three times except for blots shown in Figs. 2e and 4c and Extended Data Figs. 6b and 8f, which were performed twice. […] Uncropped and unprocessed scans of all blots are available as a Supplementary Figs. 1 (main text figures, which contain Figs. 2d,e, 3a,g and 4c) and 2 (Extended Data Figs. 1d,h,i, 3b–e,h,i, 5, 6a,b, 7c, 8b,g) in the Supplementary Information.
# SW48 xenografts = test: SW48 xenograft efficacy, compound 3 p.o. twice daily; assay type: in vivo, mouse; conditions: for Tumour volume (TVol): single mouse, listed as WRNi #4
# Procedure: All animal studies were conducted in accordance with ethics and procedures covered by permit BS-2275 and BS-1975 issued by the Kantonales Veterinäramt Basel-Stadt and in strict adherence to guidelines of the Eidgenössisches Tierschutzgesetz and the Eidgenössische Tierschutzverordnung, Switzerland. All animal studies were approved by the internal ethics committee. All animals had access to food and water ad libitum and were identified with transponders. They were housed in a specific-pathogen-free facility in IVC racks under a 12 h–12 h light–dark cycle. To establish cell-line-derived xenograft models, 6–7-week-old female athymic nude (Crl:NU(NCr)-Foxn1^nu) or SCID-BEIGE (CB17.Cg-PrkdcscidLystbg-J/Crl) mice from Charles River were engrafted subcutaneously with 5 million tumour cells in HBSS (H6648, Sigma-Aldrich). For SNU-407, Lovo, IM95, RL95.2, Ishikawa and IGROV-1, the cells were concentrated in 50% Matrigel (354234, Corning). Patient-derived xenografts were induced and expanded by transplantation as previously described. […] For the efficacy experiment, mice were randomized into groups (n = 5–6) for a mean tumour size of 100–150 mm^3. […] Blood samples were collected on day 7 and 91. […] Tumour responses are reported with the measures of tumour volumes from the treatment start. […] Animals were randomized (n = 3) and tumour samples were collected at 0, 1, 4, 8 and 24 h on the first day and then collected 4 h after the last treatment on day 3, 8, 10, 14 (including a 24 h timepoint), 17 and 21. Tumours were excised, weighed, either frozen in liquid nitrogen and cryogenic dry pulverized with the CryoPrep system (model CP-02, Covaris) or processed to FFPE after fixation. […] On day 12, blood samples were collected for PK analysis. On the last day (3 h after the last treatment), tumours were excised, weighed, frozen in liquid nitrogen and cryogenic dry pulverized for PD analysis.
# PXR, sequence (O75469 whole entry, species assumed): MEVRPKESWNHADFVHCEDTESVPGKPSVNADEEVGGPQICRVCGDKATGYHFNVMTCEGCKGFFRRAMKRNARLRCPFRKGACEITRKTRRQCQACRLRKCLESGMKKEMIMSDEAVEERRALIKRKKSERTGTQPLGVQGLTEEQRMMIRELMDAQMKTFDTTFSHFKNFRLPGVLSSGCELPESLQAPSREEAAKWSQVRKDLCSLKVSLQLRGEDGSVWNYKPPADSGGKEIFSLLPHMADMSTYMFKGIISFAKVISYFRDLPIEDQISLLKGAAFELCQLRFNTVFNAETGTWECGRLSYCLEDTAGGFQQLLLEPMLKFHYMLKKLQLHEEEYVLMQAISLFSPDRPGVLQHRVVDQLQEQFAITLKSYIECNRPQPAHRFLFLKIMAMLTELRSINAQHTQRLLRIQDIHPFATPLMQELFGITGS
smiles,measurement,setting,value
CCc1c(N2CCN(C(=O)c3ncnc(C)c3O)CC2)c(=O)n2nc(C3=CCOCC3)nc2n1CC(=O)Nc1ccc(C(F)(F)F)cc1Cl [HRO761],GI50,2313287,2080 nM
same,GI50,IM95,2010 nM
same,GI50,OVK18,≥ 10000 nM
same,GI50,"LS411N; Homo sapiens, LS-411N, 96 h, read-out: 4 day assay GI50, LS411N",147 nM
same,GI50,"LS411N; read-out: 4 day assay GI50, LS411N",257 nM
same,GI50,HEC151 [1],303 nM
same,GI50,HEC6,16 nM
same,GI50,SNU1,≥ 10000 nM
same,IC50,[2],> 25000 nM
same,GI50,TGBC11TKB,178 nM
same,GI50,LIM2405,1530 nM
same,GI50,LS180,131 nM
same,GI50,SNGM,7290 nM
same,GI50,IGROV1,473 nM
same,GI50,Ishikawa,51 nM
same,GI50,RL952,16 nM
same,PXR activation,PXR,No PXR
same,GI50,LS513,≥ 10000 nM
same,GI50,HEC151 [3],≥ 10000 nM
same,GI50,CAL33,≥ 10000 nM
same,fraction unbound,Mouse unbound fraction,0.193
same,start of WRN degradation,HCT116 cells,8 h
CCc1c(N2CCN(C(=O)c3ncccc3O)CC2)c(=O)n2nc(C3=CCOCC3)nc2n1CC(=O)Nc1ccc(C(F)(F)F)cc1C [compound 3],Mean TVol,"SW48 xenografts; 15mg/kg BID, day 0",186.30 mm3
same,Tumour volume (TVol),"SW48 xenografts; 15mg/kg BID, day 0",125.21 mm3 and 176.57 mm3 and 158.22 mm3 and 139.01 mm3 and 236.47 mm3 and 285.36 mm3 and 183.25 mm3
same,Mean TVol,"SW48 xenografts; 15mg/kg BID, day 4",363.88 mm3
same,Tumour volume (TVol),"SW48 xenografts; 15mg/kg BID, day 4",335.90 mm3 and 349.83 mm3 and 278.60 mm3 and 343.34 mm3 and 317.21 mm3 and 499.75 mm3 and 422.53 mm3
same,Mean TVol,"SW48 xenografts; 15mg/kg BID, day 6",401.70 mm3
same,Tumour volume (TVol),"SW48 xenografts; 15mg/kg BID, day 6",446.30 mm3 and 500.68 mm3
same,Mean TVol,"SW48 xenografts; 15mg/kg BID, day 8",483.57 mm3
same,Mean TVol,"SW48 xenografts; 15mg/kg BID, day 11",653.78 mm3
same,Tumour volume (TVol),"SW48 xenografts; 15mg/kg BID, day 11",649.03 mm3 and 796.01 mm3 and 408.88 mm3 and 697.95 mm3 and 448.35 mm3 and 901.30 mm3 and 674.92 mm3
same,Mean TVol,"SW48 xenografts; 15mg/kg BID, day 13",737.71 mm3
same,Tumour volume (TVol),"SW48 xenografts; 15mg/kg BID, day 13",506.43 mm3 and 897.69 mm3 and 575.84 mm3 and 720.03 mm3 and 530.25 mm3 and 1055.13 mm3 and 878.60 mm3
same,Mean TVol,"SW48 xenografts; 50mg/kg BID, day 0",186.25 mm3
same,Tumour volume (TVol),"SW48 xenografts; 50mg/kg BID, day 0",104.69 mm3 and 206.32 mm3 and 158.46 mm3 and 258.06 mm3 and 184.54 mm3 and 140.44 mm3 and 251.24 mm3
same,Mean TVol,"SW48 xenografts; 50mg/kg BID, day 4",286.97 mm3
same,Tumour volume (TVol),"SW48 xenografts; 50mg/kg BID, day 4",175.53 mm3 and 349.15 mm3 and 205.03 mm3 and 394.61 mm3 and 285.83 mm3 and 247.36 mm3 and 351.29 mm3
same,Mean TVol,"SW48 xenografts; 50mg/kg BID, day 6",317.35 mm3
same,Tumour volume (TVol),"SW48 xenografts; 50mg/kg BID, day 6",143.51 mm3 and 438.53 mm3 and 201.74 mm3 and 334.71 mm3 and 301.07 mm3 and 265.24 mm3 and 536.64 mm3
same,Mean TVol,"SW48 xenografts; 50mg/kg BID, day 8",332.70 mm3
same,Mean TVol,"SW48 xenografts; 50mg/kg BID, day 11",410.64 mm3
same,Tumour volume (TVol),"SW48 xenografts; 50mg/kg BID, day 11",304.71 mm3 and 545.58 mm3 and 199.89 mm3 and 340.76 mm3 and 293.59 mm3 and 390.68 mm3 and 799.25 mm3
same,Mean TVol,"SW48 xenografts; 50mg/kg BID, day 13",453.33 mm3
same,Tumour volume (TVol),"SW48 xenografts; 50mg/kg BID, day 13",281.31 mm3 and 743.48 mm3 and 206.77 mm3 and 483.85 mm3 and 288.10 mm3 and 511.66 mm3 and 658.13 mm3
same,tumour response,SW48 xenografts; 150 mg per kg orally twice daily,stable disease
same,Mean TVol,"SW48 xenografts; 150mg/kg BID, day 0",186.70 mm3
same,Tumour volume (TVol),"SW48 xenografts; 150mg/kg BID, day 0 post 1st dose",121.54 mm3 and 271.88 mm3 and 115.87 mm3 and 175.12 mm3 and 222.88 mm3 and 177.21 mm3 and 222.42 mm3
same,Mean TVol,"SW48 xenografts; 150mg/kg BID, day 4",226.51 mm3
same,Tumour volume (TVol),"SW48 xenografts; 150mg/kg BID, day 4",200.34 mm3 and 361.96 mm3 and 112.57 mm3 and 220.17 mm3 and 244.46 mm3 and 160.01 mm3 and 286.05 mm3
same,Mean TVol,"SW48 xenografts; 150mg/kg BID, day 6",224.94 mm3
same,Tumour volume (TVol),"SW48 xenografts; 150mg/kg BID, day 6",174.76 mm3 and 361.01 mm3 and 147.06 mm3 and 189.44 mm3 and 231.82 mm3 and 170.17 mm3 and 300.33 mm3
same,Mean TVol,"SW48 xenografts; 150mg/kg BID, day 8",196.74 mm3
same,Mean TVol,"SW48 xenografts; 150mg/kg BID, day 11",203.13 mm3
same,Tumour volume (TVol),"SW48 xenografts; 150mg/kg BID, day 11",147.98 mm3 and 318.20 mm3 and 124.24 mm3 and 228.02 mm3 and 223.70 mm3 and 145.76 mm3 and 234.03 mm3
same,Mean TVol,"SW48 xenografts; 150mg/kg BID, day 13",172.38 mm3
same,Tumour volume (TVol),"SW48 xenografts; 150mg/kg BID, day 13",158.96 mm3 and 252.06 mm3 and 121.12 mm3 and 163.89 mm3 and 181.33 mm3 and 166.20 mm3 and 163.13 mm3
same,Reg,SW48 xenografts; 150 mg/kg p.o. twice daily,4 % Reg
